These results are taken from patent US20050090529A1, “3,5 Disubstituted indazole compounds with nitrogen-bearing 5-membered heterocycles, pharmaceutical compositions, and methods for mediating or inhibiting cell proliferation” (PFIZER INC, priority 2003, published 2005).

Series [1] has as its target T1, CDK2/Cyclin A (Homo sapiens, UniProt P24941).
T1 construct: made in house; host or cells: CDK2: insect cells (baculovirus); cyclin A: E. coli
Description: Inhibition of CDK2/Cyclin A retinoblastoma kinase activity (apparent Ki). The class given is biochemical. The note with it: read-out: CDK2 Ki. The procedure:
Cyclin-dependent kinase activity was measured by quantifying the enzyme-catalyzed, time-dependent incorporation of radioactive phosphate from [^32P]ATP or [^33P]ATP into a protein substrate. […] Reactions were initiated with enzyme, incubated at 30° C., and terminated after 20 minutes by the addition of ethylenediaminetetraacetic acid (EDTA) to 250 mM. […] Radioactivity was quantified by exposing the dried membranes to a phosphorimager.
Apparent Ki values were measured by assaying enzyme activity in the presence of different inhibitor compound concentrations and subtracting the background radioactivity measured in the absence of enzyme. Inhibition data were fit to an equation for competitive inhibition using Kaleidagraph (Synergy Software), or were fit to an equation for competitive tight-binding inhibition using the software KineTic (BioKin, Ltd.).
A complex of CDK2 and proteolyzed cyclin A was prepared and purified by gel filtration. […] Ki values were measured as described above.

Series [2] is described as follows: Measurement of kinetic solubility. The note with it: 100 mM sodium phosphate buffer, pH 6.5, aqueous buffer, kinetic from dmso stock. As to the method:
Kinetic solubility was determined with a […] stock solution from the compound(s) of interest. […] Samples and standards were then centrifuged and an aliquot was removed for HPLC analysis. Samples and standards were analyzed by HPLC and a final concentration for the sample was determined based on a one-point calibration curve from the corresponding standard. Results were reported as μg's/mL.

In general, solubility refers to the concentration that dissolves in the medium under given conditions. Low readings indicate little dissolved substance, high ones much dissolved substance.

In brackets after ≈: the same amount, converted by molar mass. Where only a bound is given, the exact number is not on record here.

Turning to `CCNCc1cncc(-c2ccc3[nH]nc(-c4nc(-c5ccccc5)c(C(=O)N5CCC[C@H]5COC)[nH]4)c3c2)c1C` [Example 14, {2-[5-(5-Ethylaminomethyl-4-methyl-pyridin-3-yl)-1H-indazol-3-yl]-5-phenyl-3H-imidazol-4-yl}-(2-methoxymethyl-pyrrolidin-1-yl)-methanone], the Ki in series [1] was > 200 nM. The solubility in series [2] was > 120 µg/mL.

Turning to `CCNCc1cncc(-c2ccc3[nH]nc(-c4nc(-c5ccccc5)c(C(=O)N5CCC[C@@H]5COC)[nH]4)c3c2)c1C` [Example 15, {2-[5-(5-Ethylaminomethyl-4-methyl-pyridin-3-yl)-1H-indazol-3-yl]-5-phenyl-3H-imidazol-4-yl}-(2-methoxymethyl-pyrrolidin-1-yl)-methanone], in series [1], the Ki is > 200 nM. Further, the solubility in series [2] is > 120 µg/mL.

Turning to `CCCc1nc(-c2n[nH]c3ccc(-c4cncc(CNCC)c4C)cc23)[nH]c1C` [Example 19, Ethyl-{4-methyl-5-[3-(5-methyl-4-propyl-1H-imidazol-2-yl)-1H-indazol-5-yl]-pyridin-3-ylmethyl}-amine], the Ki in series [1] is < 50 nM. In series [2], this molecule had a solubility of 20 to 120 µg/mL (≈ 51.5 to 309 µM).

As for `CCNCc1cncc(-c2ccc3[nH]nc(-c4nc(CC(C)C)c(C)[nH]4)c3c2)c1C` [Example 20, Ethyl-{5-[3-(4-isobutyl-5-methyl-1H-imidazol-2-yl)-1H-indazol-5-yl]-4-methyl-pyridin-3-ylmethyl}-amine], the Ki in series [1] was < 50 nM. For the same molecule, in series [2], the solubility lay within 20 to 120 µg/mL (≈ 49.7 to 298 µM).

Consider `CCNCc1cncc(-c2ccc3[nH]nc(-c4nc(CC)c(CC)[nH]4)c3c2)c1C` [Example 22, {5-[3-(4,5-Diethyl-1H-imidazol-2-yl)-1H-indazol-5-yl]-4-methyl-pyridin-3-ylmethyl}-ethyl-amine], for which the Ki in series [1] is < 50 nM. In addition, the solubility in series [2] is > 120 µg/mL.

Regarding `CCNCc1cncc(-c2ccc3[nH]nc(-c4nc(CC)c(C)[nH]4)c3c2)c1C` [Example 23, Ethyl-{5-[3-(4-ethyl-5-methyl-1H-imidazol-2-yl)-1H-indazol-5-yl]-4-methyl-pyridin-3-ylmethyl}-amine], the Ki in series [1] is < 50 nM. Moreover, the solubility in series [2] was > 120 µg/mL.

`CCNCc1cncc(-c2ccc3[nH]nc(-c4nc(C)c(C)[nH]4)c3c2)c1C` [Example 24, {5-[3-(4,5-Dimethyl-1H-imidazol-2-yl)-1H-indazol-5-yl]-4-methyl-pyridin-3-ylmethyl}-ethyl-amine]: in series [1], the Ki is < 50 nM. Moreover, in series [2], the solubility is > 120 µg/mL.

As to `CCNCc1cncc(-c2ccc3[nH]nc(-c4nc(-c5ccc(Cl)cc5)c(C)[nH]4)c3c2)c1C` [Example 25, (5-{3-[4-(4-Chloro-phenyl)-5-methyl-1H-imidazol-2-yl]-1H-indazol-5-yl}-4-methyl-pyridin-3-ylmethyl)-ethyl-amine], in series [1], the Ki is < 50 nM. In series [2], this molecule yielded a solubility of 20 to 120 µg/mL (≈ 43.8 to 263 µM).

In the case of `CCNCc1cncc(-c2ccc3[nH]nc(-c4nc(-c5cc(Cl)cc(Cl)c5)c(C)[nH]4)c3c2)c1C` [Example 26, (5-{3-[4-(3,5-Dichloro-phenyl)-5-methyl-1H-imidazol-2-yl]-1H-indazol-5-yl}-4-methyl-pyridin-3-ylmethyl)-ethyl-amine], the Ki in series [1] was < 50 nM. Besides, the solubility in series [2] was < 20 µg/mL.

Consider `CCNCc1cncc(-c2ccc3[nH]nc(-c4nc(-c5cccc(C(F)(F)F)c5)c(C)[nH]4)c3c2)c1C` [Example 27, Ethyl-(4-methyl-5-{3-[5-methyl-4-(3-trifluoromethyl-phenyl)-1H-imidazol-2-yl]-1H-indazol-5-yl}-pyridin-3-ylmethyl)-amine], for which the Ki in series [1] is < 50 nM. Besides, the solubility in series [2] was < 20 µg/mL.

As to `CCNCc1cncc(-c2ccc3[nH]nc(-c4nc(-c5ccc(C(F)(F)F)cc5)c(C)[nH]4)c3c2)c1C` [Example 28, Ethyl-(4-methyl-5-{3-[5-methyl-4-(4-trifluoromethyl-phenyl)-1H-imidazol-2-yl]-1H-indazol-5-yl}-pyridin-3-ylmethyl)-amine], the Ki in series [1] was < 50 nM. This molecule also displayed a solubility in series [2] of 20 to 120 µg/mL (≈ 40.8 to 245 µM).

`CCNCc1cncc(-c2ccc3[nH]nc(-c4nc(-c5ccccc5)c(C)[nH]4)c3c2)c1C` [Example 29, Ethyl-{4-methyl-5-[3-(5-methyl-4-phenyl-1H-imidazol-2-yl)-1H-indazol-5-yl]-pyridin-3-ylmethyl}-amine]: the Ki in series [1] is < 50 nM. The solubility in series [2] fell in the range of 20 to 120 µg/mL (≈ 47.3 to 284 µM).

As for `CCNCc1cncc(-c2ccc3[nH]nc(-c4nc(-c5ccccc5)c[nH]4)c3c2)c1C` [Example 30, Ethyl-{4-methyl-5-[3-(4-phenyl-1H-imidazol-2-yl)-1H-indazol-5-yl]-pyridin-3-ylmethyl}-amine], the Ki in series [1] was < 50 nM. Moreover, in series [2], the solubility is 20 to 120 µg/mL (≈ 49 to 294 µM).

Take `CCNCc1cncc(-c2ccc3[nH]nc(-c4nc(-c5ccc(F)cc5)c[nH]4)c3c2)c1C` [Example 31, Ethyl-(5-{3-[4-(4-fluoro-phenyl)-1H-imidazol-2-yl]-1H-indazol-5-yl}-4-methyl-pyridin-3-ylmethyl)-amine]: the Ki in series [1] was < 50 nM. Further, the solubility in series [2] was in the range of 20 to 120 µg/mL (≈ 46.9 to 281 µM).

Regarding `CCNCc1cncc(-c2ccc3[nH]nc(-c4nc(-c5cccc(F)c5)c[nH]4)c3c2)c1C` [Example 32, Ethyl-(5-{3-[4-(3-fluoro-phenyl)-1H-imidazol-2-yl]-1H-indazol-5-yl}-4-methyl-pyridin-3-ylmethyl)-amine], the Ki in series [1] is < 50 nM. In series [2], the solubility is > 120 µg/mL.

Turning to `CCNCc1cncc(-c2ccc3[nH]nc(-c4nc(-c5cccc(OC)c5)c[nH]4)c3c2)c1C` [Example 35, Ethyl-(5-{3-[4-(3-methoxy-phenyl)-1H-imidazol-2-yl]-1H-indazol-5-yl}-4-methyl-pyridin-3-ylmethyl)-amine], the Ki in series [1] is < 50 nM. Also, in series [2], the solubility lay within 20 to 120 µg/mL (≈ 45.6 to 274 µM).

On to `COCc1cncc(-c2ccc3[nH]nc(-c4nc5c([nH]4)CCCC5)c3c2)c1C` [Example 41, 5-(5-Methoxymethyl-4-methyl-pyridin-3-yl)-3-(4,5,6,7-tetrahydro-1H-benzoimidazol-2-yl)-1H-indazole], for which, in series [1], the Ki is < 50 nM. In addition, the solubility in series [2] was > 120 µg/mL.

Take `COCc1cncc(-c2ccc3[nH]nc(-c4ncc[nH]4)c3c2)c1C` [Example 42, 3-(1H-Imidazol-2-yl)-5-(5-methoxymethyl-4-methyl-pyridin-3-yl)-1H-indazole]: the Ki in series [1] is 50 to 200 nM. Moreover, in series [2], the solubility was > 120 µg/mL.

In the case of `CCOCc1cncc(-c2ccc3[nH]nc(-c4nc5c([nH]4)CCCC5)c3c2)c1C` [Example 43, 5-(5-Ethoxymethyl-4-methyl-pyridin-3-yl)-3-(4,5,6,7-tetrahydro-1H-benzoimidazol-2-yl)-1H-indazole], in series [1], the Ki lay in the range of 50 to 200 nM. The solubility in series [2] lay in the range of 20 to 120 µg/mL (≈ 51.6 to 310 µM).

For `CCOCc1cncc(-c2ccc3[nH]nc(-c4ncc[nH]4)c3c2)c1C` [Example 44, 5-(5-Ethoxymethyl-4-methyl-pyridin-3-yl)-3-(1H-imidazol-2-yl)-1H-indazole], the Ki in series [1] was in the range of 50 to 200 nM. The solubility in series [2] is > 120 µg/mL.

As for `CCNCc1cncc(-c2ccc3[nH]nc(-c4nc5c([nH]4)CCCC5)c3c2)c1CC` [Example 46, Ethyl-{4-ethyl-5-[3-(4,5,6,7-tetrahydro-1H-benzoimidazol-2-yl)-1H-indazol-5-yl]-pyridin-3-ylmethyl}-amine], in series [1], the Ki is < 50 nM. In series [2], the solubility is > 120 µg/mL.

On to `CCNCc1cncc(-c2ccc3[nH]nc(-c4ncc[nH]4)c3c2)c1CC` [Example 47, Ethyl-{4-ethyl-5-[3-(1H-imidazol-2-yl)-1H-indazol-5-yl]-pyridin-3-ylmethyl}-amine], for which the Ki in series [1] is < 50 nM. In addition, the solubility in series [2] was > 120 µg/mL.

In the case of `Cc1c(CNC(C)C)cncc1-c1ccc2[nH]nc(-c3ncc[nH]3)c2c1` [Example 48, {5-[3-(1H-Imidazol-2-yl)-1H-indazol-5-yl]-4-methyl-pyridin-3-ylmethyl}-isopropyl-amine], the Ki in series [1] is < 50 nM. Further, the solubility in series [2] is > 120 µg/mL.

As to `CCNCc1cncc(-c2ccc3[nH]nc(-c4nc(C(=O)NCc5cccnc5)c[nH]4)c3c2)c1C` [Example 49, 2-(5-{5-[(ethylamino)methyl]-4-methylpyridin-3-yl}-1H-indazol-3-yl)-N-(pyridin-3-ylmethyl)-1H-imidazole-5-carboxamide], the Ki in series [1] was < 50 nM. Moreover, the solubility in series [2] was > 120 µg/mL.

For `CCNCc1cncc(-c2ccc3[nH]nc(-c4nc(C(=O)NC5CCCCC5)c[nH]4)c3c2)c1C` [Example 50, N-cyclohexyl-2-(5-{5-[(ethylamino)methyl]-4-methylpyridin-3-yl}-1H-indazol-3-yl)-1H-imidazole-5-carboxamide], the Ki in series [1] was < 50 nM. The molecule further displayed a solubility in series [2] of 20 to 120 µg/mL (≈ 43.7 to 262 µM).

With `CCNCc1cncc(-c2ccc3[nH]nc(-c4ncc(C(=O)N[C@@H]5CCc6ccccc65)[nH]4)c3c2)c1C` [Example 51, N-[(1R)-2,3-dihydro-1H-inden-1-yl]-2-(5-{5-[(ethylamino)methyl]-4-methylpyridin-3-yl}-1H-indazol-3-yl)-1H-imidazole-5-carboxamide], the Ki in series [1] is < 50 nM. Also, the solubility in series [2] was 20 to 120 µg/mL (≈ 40.7 to 244 µM).

Turning to `CCNCc1cncc(-c2ccc3[nH]nc(-c4ncc(C(=O)N[C@H]5CCc6ccccc65)[nH]4)c3c2)c1C` [Example 53, N-[(1S)-2,3-dihydro-1H-inden-1-yl]-2-(5-{5-[(ethylamino)methyl]-4-methylpyridin-3-yl]-1H-indazol-3-yl)-1H-imidazole-5-carboxamide], the Ki in series [1] was < 50 nM. This molecule also yielded a solubility in series [2] of 20 to 120 µg/mL (≈ 40.7 to 244 µM).
